Test results as given in the NIST ThermoML archive (doi:10.1016/j.jct.2018.08.004).
± gives the expanded uncertainty stated by the source.

Columns and labels:
[1] = Maximal bubble pressure
[2] = xn = mol fraction of the nth substance listed; settings: x2 = 0; for surface tension liquid-gas: Maximal bubble pressure; for mass density: 100 kPa, Liquid, Vibrating tube method

Compound `CCO` [ethanol] has a surface tension liquid-gas ([1]; 288.15 K) of 23.3 ± 0.8 mN/m, a surface tension liquid-gas ([1]; 293.15 K) of 22.7 ± 0.8 mN/m and a surface tension liquid-gas ([1]; 298.15 K) of 22.2 ± 0.8 mN/m. The surface tension liquid-gas ([1]; 303.15 K) was 21.6 ± 0.7 mN/m, the surface tension liquid-gas ([1]; 308.15 K) was 21.1 ± 0.7 mN/m and the surface tension liquid-gas ([1]; 313.15 K) was 20.7 ± 0.7 mN/m. For the same compound, the surface tension liquid-gas ([1]; 318.15 K) was 20 ± 0.7 mN/m.
`CCO` [ethanol] + CCCC[n+]1ccccc1.N#C[N-]C#N gave a surface tension liquid-gas ([2]; 288.15 K) of 23.3 ± 0.8 mN/m, a mass density ([2]; 288.15 K) of 793.91 ± 2 kg/m3 and a surface tension liquid-gas ([2]; 293.15 K) of 22.7 ± 0.8 mN/m. For the same compound, the mass density ([2]; 293.15 K) was 789.66 ± 2 kg/m3, the surface tension liquid-gas ([2]; 298.15 K) was 22.2 ± 0.8 mN/m and the mass density ([2]; 298.15 K) was 785.73 ± 2 kg/m3. For the same compound, the surface tension liquid-gas ([2]; 303.15 K) was 21.6 ± 0.7 mN/m, the mass density ([2]; 303.15 K) was 781.05 ± 2 kg/m3 and the surface tension liquid-gas ([2]; 308.15 K) was 21.1 ± 0.7 mN/m. The mass density ([2]; 308.15 K) was 776.7 ± 1.9 kg/m3, the surface tension liquid-gas ([2]; 313.15 K) was 20.7 ± 0.7 mN/m and the mass density ([2]; 313.15 K) was 772.31 ± 1.9 kg/m3. It also gave a surface tension liquid-gas ([2]; 318.15 K) of 20 ± 0.7 mN/m and a mass density ([2]; 318.15 K) of 767.88 ± 1.9 kg/m3.
`CCCO` [propan-1-ol] showed a surface tension liquid-gas ([1]; 288.15 K) of 24.5 ± 0.8 mN/m, a surface tension liquid-gas ([1]; 293.15 K) of 23.9 ± 0.8 mN/m and a surface tension liquid-gas ([1]; 298.15 K) of 23.4 ± 0.8 mN/m. It also gave a surface tension liquid-gas ([1]; 303.15 K) of 23 ± 0.8 mN/m, a surface tension liquid-gas ([1]; 308.15 K) of 22.5 ± 0.8 mN/m and a surface tension liquid-gas ([1]; 313.15 K) of 22.1 ± 0.7 mN/m. The surface tension liquid-gas ([1]; 318.15 K) was 21.6 ± 0.7 mN/m.
Compound `CCCO` [propan-1-ol] + CCCC[n+]1ccccc1.N#C[N-]C#N has a surface tension liquid-gas ([2]; 288.15 K) of 24.5 ± 0.8 mN/m, a mass density ([2]; 288.15 K) of 807.55 ± 2 kg/m3 and a surface tension liquid-gas ([2]; 293.15 K) of 23.9 ± 0.8 mN/m. The mass density ([2]; 293.15 K) was 803.59 ± 2 kg/m3, the surface tension liquid-gas ([2]; 298.15 K) was 23.4 ± 0.8 mN/m and the mass density ([2]; 298.15 K) was 799.58 ± 2 kg/m3. It also gave a surface tension liquid-gas ([2]; 303.15 K) of 23 ± 0.8 mN/m, a mass density ([2]; 303.15 K) of 795.55 ± 2 kg/m3 and a surface tension liquid-gas ([2]; 308.15 K) of 22.5 ± 0.8 mN/m. The mass density ([2]; 308.15 K) was 791.47 ± 2 kg/m3, the surface tension liquid-gas ([2]; 313.15 K) was 22.1 ± 0.7 mN/m and the mass density ([2]; 313.15 K) was 787.36 ± 2 kg/m3. It also gave a surface tension liquid-gas ([2]; 318.15 K) of 21.6 ± 0.7 mN/m and a mass density ([2]; 318.15 K) of 783.2 ± 2 kg/m3.
`CC(C)O` [propan-2-ol] gave a surface tension liquid-gas ([1]; 288.15 K) of 22.2 ± 0.8 mN/m, a surface tension liquid-gas ([1]; 293.15 K) of 21.7 ± 0.7 mN/m and a surface tension liquid-gas ([1]; 298.15 K) of 21.2 ± 0.7 mN/m. For the same compound, the surface tension liquid-gas ([1]; 303.15 K) was 20.8 ± 0.7 mN/m, the surface tension liquid-gas ([1]; 308.15 K) was 20.3 ± 0.7 mN/m and the surface tension liquid-gas ([1]; 313.15 K) was 19.9 ± 0.7 mN/m. The surface tension liquid-gas ([1]; 318.15 K) was 19.4 ± 0.7 mN/m.
`CC(C)O` [propan-2-ol] + CCCC[n+]1ccccc1.N#C[N-]C#N gave a surface tension liquid-gas ([2]; 288.15 K) of 22.2 ± 0.8 mN/m, a mass density ([2]; 288.15 K) of 789.41 ± 2 kg/m3 and a surface tension liquid-gas ([2]; 293.15 K) of 21.7 ± 0.7 mN/m. For the same compound, the mass density ([2]; 293.15 K) was 785.29 ± 2 kg/m3, the surface tension liquid-gas ([2]; 298.15 K) was 21.2 ± 0.7 mN/m and the mass density ([2]; 298.15 K) was 781.08 ± 2 kg/m3. The surface tension liquid-gas ([2]; 303.15 K) was 20.8 ± 0.7 mN/m, the mass density ([2]; 303.15 K) was 776.81 ± 1.9 kg/m3 and the surface tension liquid-gas ([2]; 308.15 K) was 20.3 ± 0.7 mN/m. The mass density ([2]; 308.15 K) was 772.46 ± 1.9 kg/m3, the surface tension liquid-gas ([2]; 313.15 K) was 19.9 ± 0.7 mN/m and the mass density ([2]; 313.15 K) was 768.02 ± 1.9 kg/m3. For the same compound, the surface tension liquid-gas ([2]; 318.15 K) was 19.4 ± 0.7 mN/m and the mass density ([2]; 318.15 K) was 763.48 ± 1.9 kg/m3.
